Laboratory results from ChEMBL document CHEMBL3758095, “Preliminary evaluation of fluoro-pegylated benzyloxybenzenes for quantification of β-amyloid plaques by positron emission tomography” (Eur J Med Chem, 2015).
Activity calls are given as the source filed them. The calls are words filed in the database; no cut-off is given here.

Legend:
[1] = target: T1, Amyloid-beta precursor protein (Homo sapiens, UniProt P05067); assay: Displacement of [125I]BOB-4 from Amyloid beta (1 to 42) (unknown origin)
T1 sequence (P05067 whole entry): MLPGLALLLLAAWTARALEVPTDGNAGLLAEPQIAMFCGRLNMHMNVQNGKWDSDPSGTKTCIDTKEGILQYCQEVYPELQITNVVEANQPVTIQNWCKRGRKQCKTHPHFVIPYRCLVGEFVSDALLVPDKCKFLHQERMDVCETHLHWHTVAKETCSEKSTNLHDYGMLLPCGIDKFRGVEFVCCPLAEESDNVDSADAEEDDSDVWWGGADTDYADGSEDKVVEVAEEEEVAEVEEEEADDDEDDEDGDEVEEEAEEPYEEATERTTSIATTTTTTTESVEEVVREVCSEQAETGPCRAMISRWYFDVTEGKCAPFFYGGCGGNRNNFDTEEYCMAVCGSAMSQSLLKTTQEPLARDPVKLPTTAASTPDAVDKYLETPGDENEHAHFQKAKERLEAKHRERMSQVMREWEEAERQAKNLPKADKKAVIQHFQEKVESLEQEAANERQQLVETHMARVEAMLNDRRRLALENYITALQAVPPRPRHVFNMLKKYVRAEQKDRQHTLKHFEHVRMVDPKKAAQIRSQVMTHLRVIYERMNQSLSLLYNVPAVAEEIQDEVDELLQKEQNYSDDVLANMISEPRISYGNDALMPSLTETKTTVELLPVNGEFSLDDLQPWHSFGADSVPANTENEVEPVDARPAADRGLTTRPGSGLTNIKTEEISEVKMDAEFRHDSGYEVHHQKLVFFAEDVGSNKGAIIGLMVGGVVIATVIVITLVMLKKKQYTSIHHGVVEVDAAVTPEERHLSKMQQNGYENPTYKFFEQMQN

Intestine [2] = assay: Biodistribution in iv dosed ICR mouse intestine assessed per organ measured at 60 mins; assay type: ADME, organism-based; settings: in vivo, 1 h
Brain [3] = assay: Biodistribution in iv dosed ICR mouse brain measured at 2 mins; assay type: ADME, organism-based; settings: in vivo
[4] = Partition coefficient, log D of the compound; assay type: physicochemical; settings: octanol/water
Stomach [5] = assay: Biodistribution in iv dosed ICR mouse stomach assessed per organ measured at 30 mins; assay type: ADME, organism-based; settings: in vivo, 0.5 h
Intestine [6] = assay: Biodistribution in iv dosed ICR mouse intestine assessed per organ measured at 30 mins; assay type: ADME, organism-based; settings: in vivo, 0.5 h
Intestine [7] = assay: Biodistribution in iv dosed ICR mouse intestine assessed per organ measured at 10 mins; assay type: ADME, organism-based; settings: in vivo
Stomach [8] = assay: Biodistribution in iv dosed ICR mouse stomach assessed per organ measured at 60 mins; assay type: ADME, organism-based; settings: in vivo, 1 h
Liver [9] = assay: Biodistribution in iv dosed ICR mouse liver measured at 10 mins; assay type: ADME, organism-based; settings: in vivo
Intestine [10] = assay: Biodistribution in iv dosed ICR mouse intestine assessed per organ measured at 2 mins; assay type: ADME, organism-based; settings: in vivo
Stomach [11] = assay: Biodistribution in iv dosed ICR mouse stomach assessed per organ measured at 2 mins; assay type: ADME, organism-based; settings: in vivo
Stomach [12] = assay: Biodistribution in iv dosed ICR mouse stomach assessed per organ measured at 10 mins; assay type: ADME, organism-based; settings: in vivo
[13] = target: T1, Amyloid-beta precursor protein; assay: Binding affinity to amyloid beta plaques in healthy human brain by DANIR 3b staining based autoradiographic analysis; settings: tested as the 18F-labelled form
Mus musculus [14] = organism: Mus musculus; assay: Binding affinity to amyloid beta plaques in white matter of C57BL6 APPswe/PSEN1 Tg mouse brain by DANIR 3b staining based autoradiography analysis; assay type: tissue-based; settings: tested as the 18F-labelled form
Mus musculus [15] = organism: Mus musculus; assay: Binding affinity to amyloid beta plaques in C57BL6 APPswe/PSEN1 Tg mouse cerebral cortex by DANIR 3b staining based autoradiographic analysis; assay type: tissue-based; settings: tested as the 18F-labelled form
[16] = target: T1, Amyloid-beta precursor protein; assay: Binding affinity to amyloid beta plaques in alzheimer's disease patient cerebral cortex by DANIR 3b staining based autoradiographic analysis; assay type: tissue-based; settings: tested as the 18F-labelled form
Mus musculus [17] = organism: Mus musculus; assay: Binding affinity to amyloid beta plaques in C57BL6 mouse brain by DANIR 3b staining based autoradiographic analysis; assay type: tissue-based; settings: tested as the 18F-labelled form
[18] = target: T1, Amyloid-beta precursor protein; assay: Binding affinity to amyloid beta plaques in white matter of alzheimer's disease patient brain by DANIR 3b staining based autoradiographic analysis; assay type: tissue-based; settings: tested as the 18F-labelled form
Mus musculus [19] = assay: In vivo binding affinity to amyloid beta plaques in C57BL6 Appswe/PSEN1 Tg mouse hippocampus at 1 mCi, iv after 20 mins by DANIR 3b staining based autoradiographic analysis; assay type: functional, organism-based; settings: tested as the 18F-labelled form
Mus musculus [20] = assay: In vivo binding affinity to amyloid beta in wild type C57BL6 mouse brain cortex at 1 mCi, iv after 20 mins by DANIR 3b staining based autoradiographic analysis; assay type: functional, organism-based; settings: tested as the 18F-labelled form
Mus musculus [21] = assay: In vivo binding affinity to amyloid beta in wild type C57BL6 mouse hippocampus at 1 mCi, iv after 20 mins by DANIR 3b staining based autoradiographic analysis; assay type: functional, organism-based; settings: tested as the 18F-labelled form
Mus musculus [22] = assay: In vivo binding affinity to amyloid beta plaques in C57BL6 Appswe/PSEN1 Tg mouse brain cortex at 1 mCi, iv after 20 mins by DANIR 3b staining based autoradiographic analysis; assay type: functional, organism-based; settings: tested as the 18F-labelled form
Mus musculus [23] = assay: In vivo binding affinity to amyloid beta plaques in C57BL6 Appswe/PSEN1 Tg mouse cerebellum at 1 mCi, iv after 20 mins by DANIR 3b staining based autoradiographic analysis; assay type: functional, organism-based; settings: tested as the 18F-labelled form
Mus musculus [24] = assay: In vivo binding affinity to amyloid beta in wild type C57BL6 mouse cerebellum at 1 mCi, iv after 20 mins by DANIR 3b staining based autoradiographic analysis; assay type: functional, organism-based; settings: tested as the 18F-labelled form
[25] = Metabolic stability in ICR mouse liver assessed as compound remaining at 35 to 45 Mbq, iv measured at 60 mins by HPLC analysis; assay type: ADME, organism-based; settings: read-out: Stability
[26] = Metabolic stability in ICR mouse brain assessed as compound remaining at 35 to 45 Mbq, iv measured at 30 mins by HPLC analysis; assay type: ADME, organism-based; settings: read-out: Stability
[27] = Metabolic stability in ICR mouse plasma assessed as compound remaining at 35 to 45 Mbq, iv measured at 30 mins by HPLC analysis; assay type: ADME, organism-based; settings: read-out: Stability
[28] = Metabolic stability in ICR mouse brain assessed as compound remaining at 35 to 45 Mbq, iv measured at 2 mins by HPLC analysis; assay type: ADME, organism-based; settings: read-out: Stability
[29] = Metabolic stability in ICR mouse brain assessed as compound remaining at 35 to 45 Mbq, iv measured at 60 mins by HPLC analysis; assay type: ADME, organism-based; settings: read-out: Stability
Brain [30] = assay: Ratio of drug level in iv dosed ICR mouse brain at 2 to 60 mins; assay type: ADME, organism-based; settings: in vivo
[31] = Metabolic stability in ICR mouse liver assessed as compound remaining at 35 to 45 Mbq, iv measured at 2 mins by HPLC analysis; assay type: ADME, organism-based; settings: read-out: Stability
[32] = Metabolic stability in ICR mouse plasma assessed as compound remaining at 35 to 45 Mbq, iv measured at 60 mins by HPLC analysis; assay type: ADME, organism-based; settings: read-out: Stability
[33] = Metabolic stability in ICR mouse liver assessed as compound remaining at 35 to 45 Mbq, iv measured at 30 mins by HPLC analysis; assay type: ADME, organism-based; settings: read-out: Stability
[34] = Metabolic stability in ICR mouse plasma assessed as compound remaining at 35 to 45 Mbq, iv measured at 2 mins by HPLC analysis; assay type: ADME, organism-based; settings: read-out: Stability
[35] = Metabolic stability in ICR mouse feces assessed as compound remaining at 35 to 45 Mbq, iv measured at 30 mins by HPLC analysis; assay type: ADME, organism-based; settings: faeces, read-out: Stability
Brain [36] = assay: Ratio of drug level in CD1 mouse brain at 370 kBq measured at 2 to 60 mins; assay type: ADME; settings: in vivo
Liver [37] = assay: Retention time of the compound in ICR mouse liver at 35 to 45 Mbq, iv by HPLC analysis; assay type: ADME, organism-based
Plasma = assay: Retention time of the compound in ICR mouse plasma at 35 to 45 Mbq, iv by HPLC analysis; assay type: ADME, organism-based

## CN(C)c1ccc(COc2ccc(OCCOCCOCCF)cc2)cc1
[1]
  Ki: 358 nM
  inhibition: Dose-dependent effect

## COc1ccc(COc2ccc(OCCOCCOCC[18F])cc2)cc1
Intestine [2]
  Drug uptake: 26.12 %ID
Brain [3]
  Drug uptake: 9.71 % ID/g
[4]
  logD: 3.04
Stomach [5]
  Drug uptake: 1.52 %ID
Intestine [6]
  Drug uptake: 16.43 %ID
Intestine [7]
  Drug uptake: 6.18 %ID
Stomach [8]
  Drug uptake: 0.9 %ID
Liver [9]
  Drug uptake: 11.16 % ID/g
Intestine [10]
  Drug uptake: 6.3 %ID
Stomach [11]
  Drug uptake: 1.53 %ID
Stomach [12]
  Drug uptake: 1.1 %ID

## COc1ccc(COc2ccc(OCCF)cc2)cc1
[1]
  Ki: 119 nM
  inhibition: Dose-dependent effect

## COc1ccc(COc2ccc(OCCOCCF)cc2)cc1
[1]
  Ki: 438 nM
  inhibition: Dose-dependent effect

## CN(C)c1ccc(COc2ccc(OCCF)cc2)cc1
[13]
  Activity: inactive
Mus musculus [14]
  Activity: inactive
Mus musculus [15]
  Activity: Active
[1]
  Ki: 25.7 nM
  inhibition: Dose-dependent effect
[16]
  Activity: Active
Mus musculus [17]
  Activity: inactive
[18]
  Activity: inactive

## CN(C)c1ccc(OCc2ccc(OCCF)cc2)cc1
Mus musculus [19]
  Activity: Active
[13]
  Activity: inactive
Mus musculus [20]
  Activity: inactive
Mus musculus [14]
  Activity: inactive
Mus musculus [15]
  Activity: Active
Mus musculus [21]
  Activity: inactive
[1]
  Ki: 21 nM
  inhibition: Dose-dependent effect
[16]
  Activity: Active
Mus musculus [22]
  Activity: Active
Mus musculus [17]
  Activity: inactive
Mus musculus [23]
  Activity: Active
[18]
  Activity: inactive
Mus musculus [24]
  Activity: inactive

## COc1ccc(COc2ccc(OCC[18F])cc2)cc1
Intestine [2]
  Drug uptake: 13 %ID
Brain [3]
  Drug uptake: 9.95 % ID/g
[4]
  logD: 3.65
Stomach [5]
  Drug uptake: 0.78 %ID
Intestine [6]
  Drug uptake: 7.66 %ID
Intestine [7]
  Drug uptake: 4.41 %ID
Stomach [8]
  Drug uptake: 0.77 %ID
Liver [9]
  Drug uptake: 7.47 % ID/g
Intestine [10]
  Drug uptake: 7.09 %ID
Stomach [11]
  Drug uptake: 1.22 %ID
Stomach [12]
  Drug uptake: 1.08 %ID

## CN(C)c1ccc(-c2cn3cc(I)ccc3n2)cc1
[1]
  inhibition: Dose-dependent effect

## COc1ccc(OCc2ccc(OCCF)cc2)cc1
[1]
  Ki: 153 nM
  inhibition: Dose-dependent effect

## CN(C)c1ccc(OCc2ccc(OCC[18F])cc2)cc1
Intestine [2]
  Drug uptake: 6.71 %ID
[25]
  remaining at 1 h: 4.4%
Brain [3]
  Drug uptake: 9.14 % ID/g
[4]
  logD: 2.75
[26]
  remaining at 0.5 h: 31.6%
Stomach [5]
  Drug uptake: 4.69 %ID
Intestine [6]
  Drug uptake: 5.63 %ID
Intestine [7]
  Drug uptake: 5.16 %ID
Stomach [8]
  Drug uptake: 3.58 %ID
[27]
  remaining at 0.5 h: 5.8%
[28]
  remaining at 2 min: 95.4%
[29]
  remaining at 1 h: 14.8%
Liver [9]
  Drug uptake: 6.38 % ID/g
Intestine [10]
  Drug uptake: 5.49 %ID
Brain [30]
  Ratio: 5.1
[31]
  remaining at 2 min: 63.5%
[32]
  remaining at 1 h: 5.1%
[33]
  remaining at 0.5 h: 9.2%
[34]
  remaining at 2 min: 56.5%
Stomach [11]
  Drug uptake: 2.48 %ID
Stomach [12]
  Drug uptake: 4.11 %ID
[35]
  remaining at 0.5 h: 22.7%

## CNc1ccc(-c2nc3ccc(O)cc3s2)cc1
[1]
  inhibition: Dose-dependent effect

## COc1ccc(COc2ccc(OCCOCCOCCF)cc2)cc1
[1]
  Ki: 770 nM
  inhibition: Dose-dependent effect

## COc1ccc(OCc2ccc(OCC[18F])cc2)cc1
Intestine [2]
  Drug uptake: 10.75 %ID
Brain [3]
  Drug uptake: 7.54 % ID/g
[4]
  logD: 3.05
Stomach [5]
  Drug uptake: 1.29 %ID
Intestine [6]
  Drug uptake: 6.85 %ID
Intestine [7]
  Drug uptake: 4.83 %ID
Stomach [8]
  Drug uptake: 0.98 %ID
Liver [9]
  Drug uptake: 4.97 % ID/g
Intestine [10]
  Drug uptake: 7.31 %ID
Stomach [11]
  Drug uptake: 1.32 %ID
Stomach [12]
  Drug uptake: 0.96 %ID

## CNc1ccc(/C=C/c2ccc(OCCOCCOCC[18F])nc2)cc1 [FLORBETAPIR F 18]
Brain [36]
  Ratio: 3.9

## CNc1ccc(/C=C/c2ccc(OCCOCCOCCF)nc2)cc1 [FLORBETAPIR]
[1]
  Ki: 11.4 nM
  inhibition: Dose-dependent effect

## CN(C)c1ccc(COc2ccc(OCCOCCF)cc2)cc1
[1]
  Ki: 191 nM
  inhibition: Dose-dependent effect

## CN(C)c1ccc(COc2ccc(OCC[18F])cc2)cc1
Intestine [2]
  Drug uptake: 1.72 %ID
[25]
  remaining at 1 h: 10.6%
Liver [37]
  Retention_time: 9.1 min
Brain [3]
  Drug uptake: 4.51 % ID/g
[4]
  logD: 3.11
[26]
  remaining at 0.5 h: 20.6%
Stomach [5]
  Drug uptake: 0.37 %ID
Intestine [6]
  Drug uptake: 2.35 %ID
Intestine [7]
  Drug uptake: 3.12 %ID
Stomach [8]
  Drug uptake: 0.22 %ID
Plasma
  Retention_time: 9.1 min
[28]
  remaining at 2 min: 76.7%
[29]
  remaining at 1 h: 16.7%
Liver [9]
  Drug uptake: 3.23 % ID/g
Intestine [10]
  Drug uptake: 5.52 %ID
[31]
  remaining at 2 min: 22.6%
[33]
  remaining at 0.5 h: 8.4%
[34]
  remaining at 2 min: 10.8%
Stomach [11]
  Drug uptake: 0.92 %ID
Stomach [12]
  Drug uptake: 0.54 %ID
[35]
  remaining at 0.5 h: 14.6%
